Experimental data taken from patent publication US20240417387A1, “SULFONYLPIPERAZINYL COMPOUNDS FOR TREATMENT OF BACTERIAL INFECTIONS” (Hoffmann-La Roche Inc., priority 2021, published 2024).
Converted amounts (≈) assume the structure as drawn.

How the values were obtained:
[1] = tested on: Escherichia coli ATCC 25922; experiment: Minimal Inhibitory Concentration (MIC) broth dilution assay, E. coli ATCC 25922; format: cell-based; settings: Escherichia coli, ATCC25922, 20 h, read-out: MIC E. coli ATCC 25922
How it was run: (§1)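 Broth microdilution with twofold compound series in cation-adjusted Mueller Hinton broth, inoculum 5×10^5 CFU/mL, applied to each strain. Plates incubated 20 h at 35 °C in ambient air. MIC […] recorded as the lowest concentration with no visible growth, read by eye.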

[2] = Human microsome stability assay; format: in vitro ADME; settings: human liver microsomes 0.5 mg/mL, 37° C., pH 7.4, NADPH regenerating system
How it was run: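 Compound […] with 0.5 mg/mL human liver microsomal protein in 100 mM potassium phosphate pH 7.4, 10 min preincubation at 37 °C, started with NADPH regenerating system. Sampled 0–30 min, remaining compound by LC-MS/MS; clearance binned low <7, medium 7–16.2, high >16.2 mL/min/kg.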

[3] = molecular target: Escherichia coli UDP-2,3-diacylglucosamine hydrolase (LpxH) (Escherichia coli (strain K12), UniProt P43341); experiment: Enzymatic IC50 assay of Escherichia coli LpxH (UMP/CMP-Glo luminescence); format: biochemical; settings: Enzymatic IC50 against Escherichia coli LpxH; read-out: IC50 (converted)
How it was run: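 LpxH (2 nM) preincubated 10 min at room temperature with compound (100 μM to 1.7 nM) in Tris-HCl pH7.5 buffer with 2.5 mM MnCl2, then reacted with 5 μM UDP-DAG for 20 min. Reaction heat-stopped at 95° C.; released UMP converted to ATP and read by luciferase luminescence (UMP/CMP-Glo).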

[4] = tested on: Escherichia coli BW 25113; experiment: Minimal Inhibitory Concentration (MIC) broth dilution assay, E. coli BW 25113; format: cell-based; settings: Escherichia coli, BW25113, 20 hours at 35° C., CAMHB, read-out: MIC E. coli K-12 BW 25113
How it was run: as §1

[5] = tested on: Klebsiella pneumonia ATCC 43816; experiment: Minimal Inhibitory Concentration (MIC) broth dilution assay, K. pneumonia ATCC 43816; format: cell-based; settings: Klebsiella pneumoniae, ATCC43816, 20 hours at 35° C., CAMHB, read-out: MIC K. p ATCC 43816
How it was run: as §1

Chain of Escherichia coli UDP-2,3-diacylglucosamine hydrolase (LpxH) (P43341 whole entry): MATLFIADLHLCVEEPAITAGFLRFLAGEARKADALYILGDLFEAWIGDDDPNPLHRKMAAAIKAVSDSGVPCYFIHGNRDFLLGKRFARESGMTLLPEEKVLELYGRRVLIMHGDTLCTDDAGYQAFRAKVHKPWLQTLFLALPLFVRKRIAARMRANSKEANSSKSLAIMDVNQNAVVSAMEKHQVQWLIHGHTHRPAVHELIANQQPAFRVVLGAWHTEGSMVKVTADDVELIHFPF

NCC(O)CNC(=O)[C@H]1CC[C@H](C(F)(F)c2cc(Cl)nc(N3CCN(S(=O)(=O)c4ccc(N5C[C@H](N)CC5=O)cc4)CC3)c2)CC1 (stereo partly drawn) [Example 036, Trans-N-(3-amino-2-hydroxy-propyl)-4-[[2-chloro-6-[4-[4-[(4R)-4-amino-2-oxo-pyrrolidin-1-yl]phenyl]sulfonylpiperazin-1-yl]-4-pyridyl]-difluoro-methyl]cyclohexanecarboxamide]
MIC [1]: 1.1 µg/mL (≈ 1.61 µM) | Clearance of Human microsome [2]: 6.15 mL/min/kg | IC50 [3]: 5.85 nM | MIC [4]: 1.1 µg/mL (≈ 1.61 µM) | MIC [5]: 1.1 µg/mL (≈ 1.61 µM)

C[N+](C)(C)CCCNC(=O)c1ccc(C(F)(F)c2cc(Cl)nc(N3CCN(S(=O)(=O)c4ccc(N5C[C@H](N)CC5=O)cc4)CC3)c2)cc1 [Example 037]
MIC [1]: 1.5 µg/mL | Clearance of Human microsome [2]: 6.66 mL/min/kg | IC50 [3]: < 2.84 nM | MIC [4]: 0.73 µg/mL | MIC [5]: 1.5 µg/mL

C[N+]1(CCCNC(=O)c2ccc(C(F)(F)c3cc(Cl)nc(N4CCN(S(=O)(=O)c5ccc(N6C[C@H](N)CC6=O)cc5)CC4)c3)cc2)CCCC1 [Example 038, 4-[[2-Chloro-6-[4-[4-[(4R)-4-amino-2-oxo-pyrrolidin-1-yl]phenyl]sulfonylpiperazin-1-yl]-4-pyridyl]-difluoro-methyl]-N-[3-(1-methylpyrrolidin-1-ium-1-yl)propyl]benzamide]
MIC [1]: 1.5 µg/mL | Clearance of Human microsome [2]: 6.80 mL/min/kg | IC50 [3]: 4.1 nM | MIC [4]: 1.5 µg/mL | MIC [5]: 1.5 µg/mL

N[C@@H]1CC(=O)N(c2ccc(S(=O)(=O)N3CCN(c4cc(C(F)(F)c5ccc(C(=O)NCCCNCCO)nc5)cc(Cl)n4)CC3)cc2)C1 [Example 039, 5-[[2-Chloro-6-[4-[4-[(4R)-4-amino-2-oxo-pyrrolidin-1-yl]phenyl]sulfonylpiperazin-1-yl]-4-pyridyl]-difluoro-methyl]-N-[3-(2-hydroxyethylamino)propyl]pyridine-2-carboxamide]
MIC [1]: 1.6 µg/mL (≈ 2.26 µM) | Clearance of Human microsome [2]: 6.15 mL/min/kg | IC50 [3]: 4.24 nM | MIC [4]: 0.82 µg/mL (≈ 1.16 µM) | MIC [5]: 1.6 µg/mL (≈ 2.26 µM)

NCCOCCNC(=O)[C@H]1CC[C@H](C(F)(F)c2cc(Cl)nc(N3CCN(S(=O)(=O)c4ccc(N5C[C@H](N)CC5=O)cc4)CC3)c2)CC1 [Example 042, Trans-N-[2-(2-aminoethoxy)ethyl]-4-[[2-chloro-6-[4-[4-[(4R)-4-amino-2-oxo-pyrrolidin-1-yl]phenyl]sulfonylpiperazin-1-yl]-4-pyridyl]-difluoro-methyl]cyclohexanecarboxamide]
MIC [1]: 2.3 µg/mL (≈ 3.29 µM) | Clearance of Human microsome [2]: 11.12 mL/min/kg | IC50 [3]: 11.5 nM | MIC [4]: 2.3 µg/mL (≈ 3.29 µM) | MIC [5]: 2.3 µg/mL (≈ 3.29 µM)

NCCN(CCN)C(=O)[C@H]1CC[C@H](C(F)(F)c2cc(Cl)nc(N3CCN(S(=O)(=O)c4ccc(N5C[C@H](N)CC5=O)cc4)CC3)c2)CC1 [Example 043]
MIC [1]: 0.57 µg/mL (≈ 0.817 µM) | Clearance of Human microsome [2]: 9.94 mL/min/kg | IC50 [3]: 35.9 nM | MIC [4]: 1.1 µg/mL (≈ 1.58 µM) | MIC [5]: 1.1 µg/mL (≈ 1.58 µM)

NCCCN(CCCN)C(=O)[C@H]1CC[C@H](C(F)(F)c2cc(Cl)nc(N3CCN(S(=O)(=O)c4ccc(N5C[C@H](N)CC5=O)cc4)CC3)c2)CC1 [Example 044, Trans-N,N-bis(3-aminopropyl)-4-[[2-chloro-6-[4-[4-[(4R)-4-amino-2-oxo-pyrrolidin-1-yl]phenyl]sulfonylpiperazin-1-yl]-4-pyridyl]-difluoro-methyl]cyclohexanecarboxamide]
MIC [1]: 0.62 µg/mL (≈ 0.855 µM) | Clearance of Human microsome [2]: 7.30 mL/min/kg | IC50 [3]: 48.3 nM | MIC [4]: 1.2 µg/mL (≈ 1.65 µM) | MIC [5]: 1.2 µg/mL (≈ 1.65 µM)

NCCCN(CCCN)C(=O)C12CCC(C(F)(F)c3cc(Cl)nc(N4CCN(S(=O)(=O)c5ccc(N6C[C@H](N)CC6=O)cc5)CC4)c3)(CC1)CC2 [Example 045, N,N-bis(3-aminopropyl)-4-[[2-chloro-6-[4-[4-[(4R)-4-amino-2-oxo-pyrrolidin-1-yl]phenyl]sulfonylpiperazin-1-yl]-4-pyridyl]-difluoro-methyl]bicyclo[2.2.2]octane-1-carboxamide]
MIC [1]: 0.62 µg/mL (≈ 0.825 µM) | Clearance of Human microsome [2]: 8.79 mL/min/kg | IC50 [3]: 18.6 nM | MIC [4]: 1.2 µg/mL (≈ 1.6 µM) | MIC [5]: 0.62 µg/mL (≈ 0.825 µM)

NCCN(CCN)CCCNC(=O)[C@H]1CC[C@H](C(F)(F)c2cc(Cl)nc(N3CCN(S(=O)(=O)c4ccc(N5C[C@H](N)CC5=O)cc4)CC3)c2)CC1 [Example 047]
MIC [1]: 0.35 µg/mL (≈ 0.464 µM) | Clearance of Human microsome [2]: 6.15 mL/min/kg | IC50 [3]: 6.63 nM | MIC [4]: 0.3 µg/mL (≈ 0.398 µM) | MIC [5]: 0.3 µg/mL (≈ 0.398 µM)

N[C@@H]1CC(=O)N(c2ccc(S(=O)(=O)N3CCN(c4cc(C(F)(F)[C@H]5CC[C@H](C(=O)N6C[C@H](N)C[C@H](N)C6)CC5)cc(Cl)n4)CC3)cc2)C1 [Example 048, Trans-(4R)-4-amino-1-[4-[4-[6-chloro-4-[[4-cis-(3,5-diaminopiperidine-1-carbonyl)cyclohexyl]-difluoro-methyl]-2-pyridyl]piperazin-1-yl]sulfonylphenyl]pyrrolidin-2-one]
MIC [1]: 1.2 µg/mL (≈ 1.69 µM) | Clearance of Human microsome [2]: 12.06 mL/min/kg | IC50 [3]: 18.3 nM | MIC [4]: 1.2 µg/mL (≈ 1.69 µM) | MIC [5]: 1.2 µg/mL (≈ 1.69 µM)

N[C@@H]1C[C@H](N)CN(CCCNC(=O)[C@H]2CC[C@H](C(F)(F)c3cc(Cl)nc(N4CCN(S(=O)(=O)c5ccc(N6C[C@H](N)CC6=O)cc5)CC4)c3)CC2)C1 [Example 049, Trans-4-[[2-chloro-6-[4-[4-[(4R)-4-amino-2-oxo-pyrrolidin-1-yl]phenyl]sulfonylpiperazin-1-yl]-4-pyridyl]-difluoro-methyl]-N-[3-[cis-3,5-diamino-1-piperidyl]propyl]cyclohexanecarboxamide]
MIC [1]: 1.2 µg/mL (≈ 1.57 µM) | Clearance of Human microsome [2]: 7.38 mL/min/kg | IC50 [3]: 9.13 nM | MIC [4]: 0.6 µg/mL (≈ 0.783 µM) | MIC [5]: 1.2 µg/mL (≈ 1.57 µM)

N[C@@H]1CC(=O)N(c2ccc(S(=O)(=O)N3CCN(c4cc(C(F)(F)[C@H]5CC[C@H](C(=O)NNC(=O)C6CCNCC6)CC5)cc(Cl)n4)CC3)cc2)C1 [Example 051, Trans-N′-[4-[[2-chloro-6-[4-[4-[(4R)-4-amino-2-oxo-pyrrolidin-1-yl]phenyl]sulfonylpiperazin-1-yl]-4-pyridyl]-difluoro-methyl]cyclohexanecarbonyl]piperidine-4-carbohydrazide]
MIC [1]: 4.6 µg/mL (≈ 6.24 µM) | Clearance of Human microsome [2]: 8.70 mL/min/kg | IC50 [3]: 12.2 nM | MIC [4]: 2.3 µg/mL (≈ 3.12 µM) | MIC [5]: 4.6 µg/mL (≈ 6.24 µM)

NC(CO)CNC(=O)[C@H]1CC[C@H](C(F)(F)c2cc(Cl)nc(N3CCN(S(=O)(=O)c4ccc(N5C[C@H](N)CC5=O)cc4)CC3)c2)CC1 (stereo partly drawn) [Example 052, Trans-N-(2-amino-3-hydroxy-propyl)-4-[[2-chloro-6-[4-[4-[(4R)-4-amino-2-oxo-pyrrolidin-1-yl]phenyl]sulfonylpiperazin-1-yl]-4-pyridyl]-difluoro-methyl]cyclohexanecarboxamide]
MIC [1]: 0.56 µg/mL (≈ 0.818 µM) | Clearance of Human microsome [2]: 7.41 mL/min/kg | IC50 [3]: < 2.92 nM | MIC [4]: 0.56 µg/mL (≈ 0.818 µM) | MIC [5]: 0.56 µg/mL (≈ 0.818 µM)

NCCCNC(=O)C1CC2C(C1)C2C(F)(F)c1cc(Cl)nc(N2CCN(S(=O)(=O)c3ccc(N4C[C@H](N)CC4=O)cc3)CC2)c1 (stereo partly drawn) [Example 055, N-(3-aminopropyl)-6-[[2-chloro-6-[4-[4-[(4R)-4-amino-2-oxo-pyrrolidin-1-yl]phenyl]sulfonylpiperazin-1-yl]-4-pyridyl]-difluoro-methyl]bicyclo[3.1.0]hexane-3-carboxamide]
MIC [1]: 0.85 µg/mL (≈ 1.28 µM) | Clearance of Human microsome [2]: 8.58 mL/min/kg | IC50 [3]: 9.01 nM | MIC [4]: 0.55 µg/mL (≈ 0.826 µM) | MIC [5]: 0.55 µg/mL (≈ 0.826 µM)
